Experimental data: patent US20240148821A1, “PHARMACEUTICAL USE OF CYCLIC PEPTIDE COMPOUND” (CHUGAI SEIYAKU KABUSHIKI KAISHA, priority 2021, published 2024)
Numbered stars: 1 amine (or outer) side, 2 acyl side, 3 side chain; on linkers, the order of the positions; unused ones are H or OH. Bridge positions count the residues as written; N and C are the ends. Square brackets hold non-standard residues; d marks the D form. Peptide text beside a SMILES is read from it. * marks the point of attachment. hPhe(3-Cl-4-CF3) = N[C@@H](CCc1ccc(C(F)(F)F)c(Cl)c1)C(=O)O; hPhe(3-F,4-CF3) = N[C@@H](CCc1ccc(C(F)(F)F)c(F)c1)C(=O)O; Phe(4-CF3) = N[C@@H](Cc1ccc(C(F)(F)F)cc1)C(=O)O; NMePhe(4-Cl) = CN[C@@H](Cc1ccc(Cl)cc1)C(=O)O; NMePhe(4-Me) = CN[C@@H](Cc1ccc(C)cc1)C(=O)O; NMedβ3hAla = C[C@H](CC(=O)[*:2])N(C)[*:1]; Oic = O=C(O)[C@@H]1C[C@@H]2CCCC[C@@H]2N1; Phe(4-Cl) = N[C@@H](Cc1ccc(Cl)cc1)C(=O)O; NMeGly(cPent) = CN[C@H](C(=O)O)C1CCCC1; Phe(3-I) = N[C@@H](Cc1cccc(I)c1)C(=O)O; Met(O2) = CS(=O)(=O)CC[C@H](N)C(=O)O; NMeAla(cPr) = CN[C@@H](CC1CC1)C(=O)O; Phe(2-Me) = Cc1ccccc1C[C@H](N)C(=O)O; NMeCha = CN[C@@H](CC1CCCCC1)C(=O)O; NMehLeu = CN[C@@H](CCC(C)C)C(=O)O; Gly(N-(CH2)2OEt) = CCOCCNCC(=O)O; NMeChg = CN[C@H](C(=O)O)C1CCCCC1; NMeD = CN[C@@H](CC(=O)O)C(=O)O; NMeL = CN[C@@H](CC(C)C)C(=O)O; Chg = N[C@H](C(=O)O)C1CCCCC1; NMePra = C#CC[C@H](NC)C(=O)O; NMeV = CN[C@H](C(=O)O)C(C)C; d(β3hA) = C[C@@H](N)CC(=O)O; dIva = CC[C@@](C)(N)C(=O)O; N(iPr)Gly = CC(C)NCC(=O)O; NMeA = CN[C@@H](C)C(=O)O; NMeAib = CNC(C)(C)C(=O)O; Piperidide = C1CCN(*)CC1; Pyrrolidide = C1CCN(*)C1; Ac5c = NC1(C(=O)O)CCCC1; Aze = O=C(O)[C@@H]1CCN1; Ac3c = NC1(C(=O)O)CC1; Sar = CNCC(=O)O

tested on: Human pancreatic cancer cell line AsPC-1 (G12D mutation Kras); assay: AsPC-1 cell growth inhibition (AsPC-1 CGI); format: cell-based; settings: read-out: AsPC-1 cell growth inhibition, 50% growth inhibitory concentration (IC50 value); 96 hours, CellTiter-Glo, values classified in ranges
Procedure: Test compounds were serially dilated with dimethyl sulfoxide, and 200 nL was then dispensed to a U-bottom 96-well plate using Labcyte Echo. […] The cell suspension was dispensed to a. plate containing a test compound at 100 μL per well and incubated at 37° C. in a 5% carbon dioxide gas incubator. 96 hours later, 80 μL of CellTiter-Glo (Promega) was added to each well and fluorescence was measured.

Structure (SMILES)	IC50 [nM]
CC[C@H](C)[C@@H]1NC(=O)[C@H](C)N(C)C(=O)C[C@@H](C(=O)N2CCCCC2)N(C)C(=O)[C@H](C(C)C)N(C)C(=O)C2(CCCC2)NC(=O)[C@@H]2CCCN2C(=O)[C@H](CCc2ccc(C(F)(F)F)c(F)c2)NC(=O)CN(C)C(=O)[C@H](CC2CCCCC2)N(C)C(=O)CN(C)C(=O)CN(C)C1=O [Compound 266] ([NMeA]I[Sar][Sar][NMeCha][Sar][hPhe(3-F,4-CF3)]P[Ac5c][NMeV][NMeD]-Piperidide; lactam N-11)	> 500
CC[C@H](C)[C@@H]1NC(=O)[C@H](CC(C)C)N(C)C(=O)C[C@@H](C)N(C)C(=O)[C@H](C(C)C)N(C)C(=O)C2(CC2)NC(=O)[C@@H]2CCCN2C(=O)[C@H](CCc2ccc(C(F)(F)F)c(Cl)c2)NC(=O)CN(C)C(=O)[C@H](CC2CCCCC2)N(C)C(=O)CN(C)C(=O)CN(C)C1=O [Compound 268] (cyclo([Ac3c][NMeV][NMedβ3hAla][NMeL]I[Sar][Sar][NMeCha][Sar][hPhe(3-Cl-4-CF3)]P))	> 500
CC[C@H](C)[C@@H]1NC(=O)[C@H](CC(C)C)N(C)C(=O)C[C@@H](C)NC(=O)[C@H](C(C)C)N(C)C(=O)[C@@](C)(CC)NC(=O)[C@@H]2CCCN2C(=O)[C@H](CCc2ccc(C(F)(F)F)c(Cl)c2)NC(=O)CN(C)C(=O)[C@H](CC2CCCCC2)N(C)C(=O)CN(C)C(=O)CN(C)C1=O [Compound 275] (cyclo(I[Sar][Sar][NMeCha][Sar][hPhe(3-Cl-4-CF3)]P[dIva][NMeV][d(β3hA)][NMeL]))	> 500
CC[C@H](C)[C@@H]1NC(=O)[C@H](CC(C)C)N(C)C(=O)C[C@@H](C(=O)N2CCCCC2)N(C)C(=O)[C@H](C2CCCCC2)N(C)C(=O)C2(CCCC2)NC(=O)[C@@H](C)NC(=O)[C@H](CCc2ccc(C(F)(F)F)c(Cl)c2)NC(=O)CN(C)C(=O)[C@H](CC2CCCCC2)N(C)C(=O)CN(C)C(=O)CN(C)C1=O [Compound 277] ([NMeL]I[Sar][Sar][NMeCha][Sar][hPhe(3-Cl-4-CF3)][dA][Ac5c][NMeChg][NMeD]-Piperidide; lactam N-11)	> 500
CC(C)C[C@H]1C(=O)N[C@@H](C2CCCCC2)C(=O)N(C)CC(=O)N(C)CC(=O)N(C)[C@@H](CC2CCCCC2)C(=O)N(C)CC(=O)N[C@@H](CCc2ccc(C(F)(F)F)c(Cl)c2)C(=O)N2CCC[C@H]2C(=O)NC2(CCCC2)C(=O)N(C)[C@@H](C(C)C)C(=O)N(C)[C@H](C(=O)N2CCCCC2)CC(=O)N1C [Compound 281] ([NMeL][Chg][Sar][Sar][NMeCha][Sar][hPhe(3-Cl-4-CF3)]P[Ac5c][NMeV][NMeD]-Piperidide; lactam N-11)	> 500
CC(C)C[C@H]1C(=O)N[C@@H](CCS(C)(=O)=O)C(=O)N(C)CC(=O)N(C)CC(=O)N(C)[C@@H](CC2CCCCC2)C(=O)N(C)CC(=O)N[C@@H](CCc2ccc(C(F)(F)F)c(Cl)c2)C(=O)N2CCC[C@H]2C(=O)NC2(CCCC2)C(=O)N(C)[C@@H](C2CCCCC2)C(=O)N(C)[C@H](C(=O)N2CCCCC2)CC(=O)N1C [Compound 283] ([NMeL][Met(O2)][Sar][Sar][NMeCha][Sar][hPhe(3-Cl-4-CF3)]P[Ac5c][NMeChg][NMeD]-Piperidide; lactam N-11)	> 500
C#CC[C@H]1C(=O)N(C)[C@H](C(=O)N2CCCCC2)CC(=O)N(C)[C@@H](CC(C)C)C(=O)N[C@@H]([C@@H](C)CC)C(=O)N(C)CC(=O)N(C)CC(=O)N(C)[C@@H](CC2CCCCC2)C(=O)N(C)CC(=O)N[C@@H](CCc2ccc(C(F)(F)F)c(Cl)c2)C(=O)N2CCC[C@H]2C(=O)NC2(CCCC2)C(=O)N1C [Compound 284] ([NMeL]I[Sar][Sar][NMeCha][Sar][hPhe(3-Cl-4-CF3)]P[Ac5c][NMePra][NMeD]-Piperidide; lactam N-11)	> 500
CC[C@H](C)[C@@H]1NC(=O)[C@H](CC(C)C)N(C)C(=O)C[C@@H](C(=O)N2CCCCC2)N(C)C(=O)[C@H](CC(C)C)NC(=O)C(C)(C)N(C)C(=O)[C@H](CC(C)C)NC(=O)[C@H](Cc2cccc(I)c2)NC(=O)CN(C)C(=O)[C@H](Cc2ccc(Cl)cc2)N(C)C(=O)CN(C)C(=O)CN(C)C1=O [Compound 295] ([NMeL]I[Sar][Sar][NMePhe(4-Cl)][Sar][Phe(3-I)]L[NMeAib]L[NMeD]-Piperidide; lactam N-11)	> 500
CC[C@H](C)[C@@H]1NC(=O)[C@H](CC(C)C)N(C)C(=O)C[C@@H](C(=O)N2CCCCC2)N(C)C(=O)[C@H](C2CCCCC2)N(C)C(=O)C2(CCCC2)NC(=O)[C@@H]2C[C@@H]3CCCC[C@@H]3N2C(=O)[C@H](CCc2ccc(C(F)(F)F)c(Cl)c2)NC(=O)CN(C)C(=O)[C@H](CC2CCCCC2)N(C)C(=O)CN(C)C(=O)CN(C)C1=O [Compound 297] ([NMeL]I[Sar][Sar][NMeCha][Sar][hPhe(3-Cl-4-CF3)][Oic][Ac5c][NMeChg][NMeD]-Piperidide; lactam N-11)	> 500
CC[C@H](C)[C@@H]1NC(=O)[C@H](CC(C)C)N(C)C(=O)C[C@@H](C(=O)N2CCCCC2)NC(=O)[C@H](CC(C)C)N(C)C(=O)C2(CCCC2)NC(=O)[C@@H]2CCCN2C(=O)[C@H](CCc2ccc(C(F)(F)F)c(F)c2)NC(=O)CN(C)C(=O)[C@H](CC2CCCCC2)N(C)C(=O)CN(C)C(=O)CN(C)C1=O [Compound 298] ([NMeL]I[Sar][Sar][NMeCha][Sar][hPhe(3-F,4-CF3)]P[Ac5c][NMeL]D-Piperidide; lactam N-11)	> 500
CC[C@H](C)[C@@H]1NC(=O)[C@H](CCC(C)C)N(C)C(=O)C[C@@H](C(=O)N(C)C)N(C)C(=O)[C@H](C2CCCC2)N(C)C(=O)C2(CCCC2)NC(=O)[C@@H]2CCCN2C(=O)[C@H](CCc2ccc(C(F)(F)F)c(Cl)c2)NC(=O)CN(C)C(=O)[C@H](Cc2ccc(C)cc2)N(C)C(=O)[C@@H]2CCN2C(=O)[C@H](C)NC1=O [Compound 303] ([NMehLeu]IA[Aze][NMePhe(4-Me)][Sar][hPhe(3-Cl-4-CF3)]P[Ac5c][NMeGly(cPent)][NMeD]-NMe2; lactam N-11)	≤ 20
CC[C@H](C)[C@@H]1NC(=O)[C@H](CC(C)C)N(C)C(=O)C[C@@H](C)NC(=O)[C@H](C(C)C)N(C)C(=O)C2(CCCC2)NC(=O)[C@@H]2CCCN2C(=O)[C@H](CCc2ccc(C(F)(F)F)c(Cl)c2)NC(=O)CN(C)C(=O)[C@H](CC2CCCCC2)N(C)C(=O)CN(C)C(=O)CN(C(C)C)C1=O [Compound 305] (cyclo([Ac5c][NMeV][d(β3hA)][NMeL]I[N(iPr)Gly][Sar][NMeCha][Sar][hPhe(3-Cl-4-CF3)]P))	> 500
CC[C@H](C)[C@@H]1NC(=O)[C@H](CC(C)C)N(C)C(=O)C[C@@H](C(=O)N2CCCC2)N(C)C(=O)[C@H](CC(C)C)NC(=O)C(C)(C)N(C)C(=O)[C@H](CC(C)C)NC(=O)[C@H](CCc2ccc(C(F)(F)F)c(F)c2)NC(=O)CN(C)C(=O)[C@H](CC2CCCCC2)N(C)C(=O)CN(C)C(=O)CN(C)C1=O [Compound 312] ([NMeL]I[Sar][Sar][NMeCha][Sar][hPhe(3-F,4-CF3)]L[NMeAib]L[NMeD]-Pyrrolidide; lactam N-11)	> 500
CC[C@H](C)[C@@H]1NC(=O)[C@H](CC(C)C)N(C)C(=O)C[C@@H](C(=O)N2CCCCC2)N(C)C(=O)[C@H](CC(C)C)NC(=O)C(C)(C)N(C)C(=O)[C@H](Cc2ccc(OC)cc2)NC(=O)[C@H](Cc2cccc(I)c2)NC(=O)CN(C)C(=O)[C@H](CC2CCCCC2)N(C)C(=O)CN(C)C(=O)CN(C)C1=O [Compound 320] ([NMeL]I[Sar][Sar][NMeCha][Sar][Phe(3-I)]Y(Me)[NMeAib]L[NMeD]-Piperidide; lactam N-11)	> 500
CC[C@H](C)[C@@H]1NC(=O)[C@H](CC(C)C)N(C)C(=O)C[C@@H](C(=O)N2CCCCC2)N(C)C(=O)[C@H](C(C)C)N(C)C(=O)C2(CCCC2)NC(=O)[C@@H]2CCCN2C(=O)[C@H](CCc2ccc(C(F)(F)F)c(Cl)c2)NC(=O)CN(C)C(=O)[C@H](CC2CC2)N(C)C(=O)CN(C)C(=O)CN(C)C1=O [Compound 325] ([NMeL]I[Sar][Sar][NMeAla(cPr)][Sar][hPhe(3-Cl-4-CF3)]P[Ac5c][NMeV][NMeD]-Piperidide; lactam N-11)	> 500
CCOCCN1CC(=O)N(C)CC(=O)N(C)[C@@H](CC2CCCCC2)C(=O)N(C)CC(=O)N[C@@H](CCc2ccc(C(F)(F)F)c(Cl)c2)C(=O)N2CCC[C@H]2C(=O)NC2(CCCC2)C(=O)N(C)[C@@H](C(C)C)C(=O)N[C@H](C)CC(=O)N(C)[C@@H](CC(C)C)C(=O)N[C@@H]([C@@H](C)CC)C1=O [Compound 329] (cyclo([Ac5c][NMeV][d(β3hA)][NMeL]I[Gly(N-(CH2)2OEt)][Sar][NMeCha][Sar][hPhe(3-Cl-4-CF3)]P))	> 500
CC[C@H](C)[C@@H]1NC(=O)[C@H](CC(C)C)N(C)C(=O)C[C@@H](C(=O)N2CCCCC2)N(C)C(=O)[C@H](CC(C)C)NC(=O)C(C)(C)N(C)C(=O)[C@H](Cc2ccc(Cl)cc2)NC(=O)[C@H](Cc2cccc(I)c2)NC(=O)CN(C)C(=O)[C@H](CC2CCCCC2)N(C)C(=O)CN(C)C(=O)CN(C)C1=O [Compound 330] ([NMeL]I[Sar][Sar][NMeCha][Sar][Phe(3-I)][Phe(4-Cl)][NMeAib]L[NMeD]-Piperidide; lactam N-11)	> 500
CC[C@H](C)[C@@H]1NC(=O)[C@H](CC(C)C)N(C)C(=O)C[C@@H](C(=O)N2CCCCC2)N(C)C(=O)[C@H](CC(C)C)NC(=O)C(C)(C)N(C)C(=O)[C@H](Cc2ccccc2C)NC(=O)[C@H](Cc2cccc(I)c2)NC(=O)CN(C)C(=O)[C@H](Cc2ccc(C)cc2)N(C)C(=O)[C@@H]2CCN2C(=O)CN(C)C1=O [Compound 335] ([NMeL]I[Sar][Aze][NMePhe(4-Me)][Sar][Phe(3-I)][Phe(2-Me)][NMeAib]L[NMeD]-Piperidide; lactam N-11)	> 500
CC[C@H](C)[C@@H]1NC(=O)[C@H](CC(C)C)N(C)C(=O)C[C@@H](C(=O)N2CCCCC2)N(C)C(=O)[C@H](CC(C)C)NC(=O)C(C)(C)N(C)C(=O)[C@H](Cc2ccc(C(F)(F)F)cc2)NC(=O)[C@H](Cc2cccc(I)c2)NC(=O)CN(C)C(=O)[C@H](CC2CCCCC2)N(C)C(=O)CN(C)C(=O)CN(C)C1=O [Compound 336] ([NMeL]I[Sar][Sar][NMeCha][Sar][Phe(3-I)][Phe(4-CF3)][NMeAib]L[NMeD]-Piperidide; lactam N-11)	> 500
